Assays:
403 WT human kinases = assay: DiscoverX scanMAX kinome-wide selectivity at 1 μM; type: binding
[1] = system: His6-SARS-CoV-2 spike protein uptake by HEK293T-ACE2 cells; assay: Spike uptake assay in HEK293T-ACE2 cells; type: cell-based, human; conditions: 1 μM
MHV-nLuc virus = assay: microbe, parasite or virus in culture; type: cell-based, mouse hepatitis virus (MHV)
SARS-CoV-2-nLuc = assay: microbe, parasite or virus in culture; type: cell-based; conditions: Severe acute respiratory syndrome coronavirus 2, A549-ACE2, 46 h, read-out: SARS-CoV-2 replication IC50
PIKfyve [2] = biological target: T1, PIKfyve (Homo sapiens, UniProt Q9Y2I7); assay: cell-based; conditions: PIKfyve NB IC50, NanoBRET, HEK293 cells
T1 sequence (Q9Y2I7 whole entry): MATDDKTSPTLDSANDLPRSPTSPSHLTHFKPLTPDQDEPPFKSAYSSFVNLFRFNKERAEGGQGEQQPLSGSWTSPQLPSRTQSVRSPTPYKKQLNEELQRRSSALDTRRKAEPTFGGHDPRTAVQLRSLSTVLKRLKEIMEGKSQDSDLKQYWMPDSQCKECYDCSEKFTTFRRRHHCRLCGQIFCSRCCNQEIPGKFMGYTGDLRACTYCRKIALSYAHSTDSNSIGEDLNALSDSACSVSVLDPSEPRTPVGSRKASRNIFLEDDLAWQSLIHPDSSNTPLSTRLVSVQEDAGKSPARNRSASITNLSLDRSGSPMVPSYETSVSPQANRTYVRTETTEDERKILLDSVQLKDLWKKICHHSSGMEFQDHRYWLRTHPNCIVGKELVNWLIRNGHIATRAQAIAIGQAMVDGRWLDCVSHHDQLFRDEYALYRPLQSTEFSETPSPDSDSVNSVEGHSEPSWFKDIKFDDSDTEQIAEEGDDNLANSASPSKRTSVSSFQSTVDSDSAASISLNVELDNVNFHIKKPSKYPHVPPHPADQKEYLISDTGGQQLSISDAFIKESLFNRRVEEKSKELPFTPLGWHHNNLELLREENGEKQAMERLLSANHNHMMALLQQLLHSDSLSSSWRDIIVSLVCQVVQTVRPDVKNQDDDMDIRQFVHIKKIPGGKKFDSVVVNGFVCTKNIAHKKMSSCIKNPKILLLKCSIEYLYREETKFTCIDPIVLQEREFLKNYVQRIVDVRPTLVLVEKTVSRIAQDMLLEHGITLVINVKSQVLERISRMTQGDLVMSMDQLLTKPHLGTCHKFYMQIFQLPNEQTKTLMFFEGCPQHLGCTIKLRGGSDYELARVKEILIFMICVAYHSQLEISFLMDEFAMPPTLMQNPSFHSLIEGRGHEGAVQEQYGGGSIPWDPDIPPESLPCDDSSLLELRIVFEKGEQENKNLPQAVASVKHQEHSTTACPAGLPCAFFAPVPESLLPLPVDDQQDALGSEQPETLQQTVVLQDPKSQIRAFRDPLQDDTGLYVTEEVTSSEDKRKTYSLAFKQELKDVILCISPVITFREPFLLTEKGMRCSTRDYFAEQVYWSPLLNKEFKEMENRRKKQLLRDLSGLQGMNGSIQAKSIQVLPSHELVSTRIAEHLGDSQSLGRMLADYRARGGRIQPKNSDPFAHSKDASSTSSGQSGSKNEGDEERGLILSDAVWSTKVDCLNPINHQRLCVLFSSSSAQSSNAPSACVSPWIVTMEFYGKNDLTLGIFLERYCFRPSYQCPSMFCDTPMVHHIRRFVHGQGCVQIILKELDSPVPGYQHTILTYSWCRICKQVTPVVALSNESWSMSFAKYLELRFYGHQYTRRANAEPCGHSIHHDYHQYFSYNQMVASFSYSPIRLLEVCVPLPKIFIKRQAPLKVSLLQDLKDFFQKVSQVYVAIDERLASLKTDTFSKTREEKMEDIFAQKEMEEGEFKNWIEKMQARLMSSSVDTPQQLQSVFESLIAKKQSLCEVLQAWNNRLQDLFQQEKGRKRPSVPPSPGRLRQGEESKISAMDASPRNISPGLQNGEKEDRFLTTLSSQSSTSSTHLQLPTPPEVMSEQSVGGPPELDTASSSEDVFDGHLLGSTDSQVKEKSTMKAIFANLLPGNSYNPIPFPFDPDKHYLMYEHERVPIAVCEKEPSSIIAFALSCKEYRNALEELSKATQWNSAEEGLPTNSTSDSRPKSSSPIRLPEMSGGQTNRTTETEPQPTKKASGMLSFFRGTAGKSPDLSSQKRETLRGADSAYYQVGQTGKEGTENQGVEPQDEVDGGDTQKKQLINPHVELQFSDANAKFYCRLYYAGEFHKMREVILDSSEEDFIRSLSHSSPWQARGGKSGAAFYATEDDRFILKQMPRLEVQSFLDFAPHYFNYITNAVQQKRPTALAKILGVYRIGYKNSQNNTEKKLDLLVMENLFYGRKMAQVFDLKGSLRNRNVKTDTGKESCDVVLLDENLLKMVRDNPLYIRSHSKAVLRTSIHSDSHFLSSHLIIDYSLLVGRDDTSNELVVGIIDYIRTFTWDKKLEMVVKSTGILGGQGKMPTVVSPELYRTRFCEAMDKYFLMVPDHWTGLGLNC

[3] = system: small panel of understudied kinases; assay: Eurofins enzymatic profiling in targeted kinase panel; type: biochemical, human; conditions: 1 μM, Table S2 panel
bald GFP lentivirus = type: cell-based; conditions: Calu-3 cells, 1 μM
[4] = system: lentivirus pseudotyped with the SARS-CoV-2 spike glycoprotein; type: cell-based; conditions: Calu-3 cells, 1 μM
PIKfyve [5] = biological target: T1, PIKfyve; assay: biochemical; type: biochemical; conditions: versus PIKfyve enzymatic and NanoBRET IC50 values
DBT cells = assay: LDH cell viability assay in DBT cells; type: cell-based, mouse; conditions: up to 10 μM
SH-SY5Y cells = assay: Lysosomal staining; type: cell-based, human; conditions: 5 μM, 24 h

| SMILES | # scanMAX kinases with PoC < 10 (403 WT human kinases) | other results |
| --- | --- | --- |
| CC(C)(C#Cc1ccc2[nH]c3c(c2c1)-c1nc(N)ncc1CCC3)CO [compound 23, 4-(2-Amino-5,6,7,8-tetrahydropyrimido[4′,5′:3,4]cyclohepta[1,2-b]indol-11-yl)-2,2-dimethylbut-3-yn-1-ol] | 11–14 |  |
| Nc1ncc2c(n1)-c1c([nH]c3ccc(C#Cc4ccncc4)cc13)CCC2 [compound 5, 11-(Pyridin-4-ylethynyl)-5,6,7,8-tetrahydropyrimido[4′,5′:3,4]cyclohepta[1,2-b]indol-2-amine] | 5 |  |
| Cn1cncc1C#Cc1ccc2[nH]c3c(c2c1)-c1nc(N)ncc1CCCC3 [compound 27, 12-((1-Methyl-1H-imidazol-5-yl)ethynyl)-6,7,8,9-tetrahydro-5H-pyrimido[4′,5′:3,4]cycloocta[1,2-b]indol-2-amine] | 0 |  |
| CCC(=O)Nc1cc(Nc2cc(NC3CC3)n3ncc(C#N)c3n2)ccc1C [SGC-CK2-1, reference compound] |  | His6-SARS-CoV-2 spike protein uptake [1]: efficiently decreased spike protein uptake |
| CCC(O)(C#Cc1ccc2[nH]c3c(c2c1)-c1nc(N)ncc1CCC3)CC [compound 26, 1-(2-Amino-5,6,7,8-tetrahydropyrimido[4′,5′:3,4]cyclohepta[1,2-b]indol-11-yl)-3-ethylpent-1-yn-3-ol] |  | IC50 (MHV-nLuc virus; Murine coronavirus, read-out: MHV replication pIC50 (converted)): 0.0741 µM; IC50 (SARS-CoV-2-nLuc): 0.0239 µM; IC50 (PIKfyve [2]): < 0.02 µM |
| CC(C)(O)C#Cc1ccc2[nH]c3c(c2c1)-c1nc(N)ncc1CC3 [compound 1, 4-(2-Amino-6,7-dihydro-5H-pyrimido[5,4-c]carbazol-10-yl)-2-methylbut-3-yn-2-ol] | 20 |  |
| CCC(C)(O)C#Cc1ccc2[nH]c3c(c2c1)-c1nc(N)ncc1CCC3 (stereo not drawn) [compound 25, 1-(2-Amino-5,6,7,8-tetrahydropyrimido[4′,5′:3,4]cyclohepta[1,2-b]indol-11-yl)-3-methylpent-1-yn-3-ol] |  | IC50 (PIKfyve [2]): < 0.02 µM |
| COC(C)(C)C#Cc1ccc2[nH]c3c(c2c1)-c1nc(N)ncc1CCC3 [compound 20, 11-(3-Methoxy-3-methylbut-1-yn-1-yl)-5,6,7,8-tetrahydropyrimido[4′,5′:3,4]cyclohepta[1,2-b]indol-2-amine] | 11–14 |  |
| CN(C)CC#Cc1ccc2[nH]c3c(c2c1)-c1nc(N)ncc1CCCC3 [compound 29, 12-(3-(Dimethylamino)prop-1-yn-1-yl)-6,7,8,9-tetrahydro-5H-pyrimido[4′,5′:3,4]cycloocta[1,2-b]indol-2-amine] | 0 |  |
| CC(O)C#Cc1ccc2[nH]c3c(c2c1)-c1nc(N)ncc1CCC3 (stereo not drawn) [compound 21, 4-(2-Amino-5,6,7,8-tetrahydropyrimido[4′,5′:3,4]cyclohepta[1,2-b]indol-11-yl)but-3-yn-2-ol] |  | IC50 (PIKfyve [2]): < 0.02 µM |
| Nc1ncc2c(n1)-c1c([nH]c3ccc(-c4ccc(F)cc4)cc13)CCCC2 [compound 9, 12-(4-Fluorophenyl)-6,7,8,9-tetrahydro-5H-pyrimido[4′,5′:3,4]cycloocta[1,2-b]indol-2-amine] | 2 |  |
| CC(C)C(O)C#Cc1ccc2[nH]c3c(c2c1)-c1nc(N)ncc1CCC3 (stereo not drawn) [compound 11, 1-(2-Amino-5,6,7,8-tetrahydropyrimido[4′,5′:3,4]cyclohepta[1,2-b]indol-11-yl)-4-methylpent-1-yn-3-ol] | 7 |  |
| CC(C)C(O)C#Cc1ccc2[nH]c3c(c2c1)-c1nc(N)ncc1CC3 (stereo not drawn) [compound 10, 1-(2-Amino-6,7-dihydro-5H-pyrimido[5,4-c]carbazol-10-yl)-4-methylpent-1-yn-3-ol] | 11 |  |
| Nc1ncc2c(n1)-c1c([nH]c3ccc(C#Cc4ccncc4)cc13)CCCC2 [compound 6, 12-(Pyridin-4-ylethynyl)-6,7,8,9-tetrahydro-5H-pyrimido[4′,5′:3,4]cycloocta[1,2-b]indol-2-amine] | 0 |  |
| Nc1ncc2c(n1)-c1c([nH]c3ccc(C#Cc4ccncc4)cc13)CC2 [compound 4, 10-(Pyridin-4-ylethynyl)-6,7-dihydro-5H-pyrimido[5,4-c]carbazol-2-amine] | 1 |  |
| CC(C)(O)C#Cc1ccc2[nH]c3c(c2c1)-c1nc(N)ncc1CCCC3 [compound 2, 4-(2-Amino-6,7,8,9-tetrahydro-5H-pyrimido[4′,5′:3,4]cycloocta[1,2-b]indol-12-yl)-2-methylbut-3-yn-2-ol] | 3 |  |
| Nc1ncc2c(n1)-c1c([nH]c3ccc(-c4ccc(F)cc4)cc13)CCC2 [compound 8, 11-(4-Fluorophenyl)-5,6,7,8-tetrahydropyrimido[4′,5′:3,4]cyclohepta[1,2-b]indol-2-amine] | 2 | highest inhibition of any kinase in the targeted enzymatic panel [3]: ≤ 55%; entry of bald lentivirus (bald GFP lentivirus): entry of bald lentivirus was not impacted; entry of lentivirus pseudotyped with SARS-CoV-2 spike glycoprotein [4]: inhibition of pseudoviral entry; inhibition of viral replication (MHV-nLuc), in words (MHV-nLuc virus; DBT cells): inhibited viral replication; selectivity over all other kinases evaluated (PIKfyve [5]): > 415 fold; effect on cell viability in DBT cells (DBT cells): no significant effect on cell viability up to 10 μM; vacuoles in LysoTracker-stained cells (SH-SY5Y cells): vacuoles are present; His6-SARS-CoV-2 spike protein uptake [1]: significantly reduced spike protein uptake |
| CC(C)(O)CC#Cc1ccc2[nH]c3c(c2c1)-c1nc(N)ncc1CCC3 [compound 24, 5-(2-Amino-5,6,7,8-tetrahydropyrimido[4′,5′:3,4]cyclohepta[1,2-b]indol-11-yl)-2-methylpent-4-yn-2-ol] | 11–14 |  |
| Cn1cc(-c2ccc3[nH]c4c(c3c2)-c2nc(N)ncc2CCC4)cn1 [compound 13, 11-(1-Methyl-1H-pyrazol-4-yl)-5,6,7,8-tetrahydropyrimido[4′,5′:3,4]cyclohepta[1,2-b]indol-2-amine] | 8 |  |
| CC(C)(O)C#Cc1ccc2[nH]cc(-c3ccnc(N)n3)c2c1 [compound 3, 4-(3-(2-Aminopyrimidin-4-yl)-1H-indol-5-yl)-2-methylbut-3-yn-2-ol] | 34 |  |
| Nc1ncc2c(n1)-c1c([nH]c3ccc(-c4ccc(F)cc4)cc13)CC2 [compound 7, 10-(4-Fluorophenyl)-6,7-dihydro-5H-pyrimido[5,4-c]carbazol-2-amine] | 3 |  |
| Cn1cc(-c2ccc3[nH]c4c(c3c2)-c2nc(N)ncc2CC4)cn1 [compound 12, 10-(1-Methyl-1H-pyrazol-4-yl)-6,7-dihydro-5H-pyrimido[5,4-c]carbazol-2-amine] | 7 |  |
| CC(C)(O)C#Cc1ccc2[nH]c3c(c2c1)-c1nc(N)ncc1CCC3 [AMG28, 4-(2-Amino-5,6,7,8-tetrahydropyrimido[4′,5′:3,4]cyclohepta[1,2-b]indol-11-yl)-2-methylbut-3-yn-2-ol, reference compound] | 21 |  |

— publication PMC9574855 (Journal of Medicinal Chemistry, 2022)
